Data reported in paper PMC10709327, “A class of secreted mammalian peptides with potential to expand cell-cell communication” (Nature Communications, 2023).
Where a SMILES comes first, the peptide text is derived from it. Where no end group is shown, it is not given here. [ ]: non-standard residue; d: D form. pGlu = O=C1CC[C@@H](C(=O)O)N1

Tests used:
human TACR3 = biological target: T1, human TACR3 (Homo sapiens, UniProt P29371); experiment: TACR agonist assay, PathHunter beta-arrestin recruitment (TACR3); assay type: cell-based; conditions: read-out: maximal activation at TACR3, higher compared to Substance P(6-11)
T1 construct: host or cells: PathHunter beta-arrestin CHO-K1 cells
T1 sequence (P29371 1-465): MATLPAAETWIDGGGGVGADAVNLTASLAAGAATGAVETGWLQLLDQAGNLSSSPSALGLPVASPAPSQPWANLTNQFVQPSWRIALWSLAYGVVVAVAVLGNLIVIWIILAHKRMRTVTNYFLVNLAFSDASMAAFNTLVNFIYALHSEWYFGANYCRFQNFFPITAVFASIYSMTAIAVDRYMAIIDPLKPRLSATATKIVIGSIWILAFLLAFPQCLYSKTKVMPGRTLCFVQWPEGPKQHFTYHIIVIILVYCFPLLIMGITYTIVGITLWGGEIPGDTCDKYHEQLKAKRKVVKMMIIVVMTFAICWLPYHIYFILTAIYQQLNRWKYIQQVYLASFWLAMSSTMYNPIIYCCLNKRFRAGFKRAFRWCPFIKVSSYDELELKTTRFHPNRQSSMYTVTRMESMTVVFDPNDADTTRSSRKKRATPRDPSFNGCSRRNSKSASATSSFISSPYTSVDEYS

in vitro = experiment: in vitro
Description: P value were calculated with two-way ANOVA. Source data are provided as a Source Data file.
At indicated time point, 1 µl of HALT protease inhibitor was immediately added, and plasma was boiled and prepared using the peptidomics workflow described above. […] Half-lives were calculated using an exponential decay fit.

[1] = tested on: diet-induced obese male mice; experiment: 3-day food intake and body weight under daily dosing; assay type: in vivo, mouse; conditions: for Food Intake: 50 mg/kg
Description: (§1) Fig. 5 Functional studies of […] in feeding and energy balance in mice. a Schematic of the primary amino acid sequence for full-length mouse GDF15 preproprotein and annotation of CAP-GDF15 sequence as well as the canonical GDF15 hormone sequence. b–d Food intake (b), respiratory exchange ratio (RER, c), and ambulatory activity (d) of 12–16-week diet-induced obese male mice following a single treatment of CAP-GDF15 (50 mg/kg, intraperitoneal) or vehicle control. e–g Food intake (e), RER (f), and ambulatory activity (g) of 12–16-week diet-induced obese male mice following a single treatment of scrambled CAP-GDF15 (50 mg/kg, intraperitoneal, scrambled sequence: pGlu-[…]-NH2) or vehicle control. h, i 3-day food intake (h) and body weight (i) of 12–16-week diet-induced obese male mice following treatment with CAP-GDF15 or scrambled CAP-GDF15 (50 mg/kg/day, IP), or vehicle control. Data are shown as means ± SEM. b–d, N = 12 mice/group; for e, f N = 8 mice/group; for h N = 7 food cages for vehicle and CAP-GDF15 groups and N = 5 for the scrambled peptide group; for i N = 14 mice for the vehicle group, N = 13 for the CAP-GDF15 group, and N = 5 for the scrambled peptide group. b–i injection occurred at time T = 0 (5:00 pm) and data were collected for the following 16 hrs. For (b-i), p values were calculated by two-way ANOVA. Source data are provided as a Source Data file.
Lastly, to determine whether the acute food intake suppressive effects of CAP-GDF15 would lead to long-term suppression of feeding and obesity, we administered CAP-GDF15 or scrambled CAP-GDF15 (50 mg/kg/day, IP), or vehicle control to diet-induced obese mice. Food intake and body weight were monitored over a three-day period. A durable suppression of food intake in CAP-GDF15-treated mice was over the three-day experiment (Vehicle, 7.3 ± 0.5 g/mouse; […], 4.1 ± 0.9 g/mouse/day, P < 0.05, Fig. 5h). Consequently, and as expected, an increasing reduction in body weight was also detected (Vehicle, +0.1 ± 0.3 g/mouse; CAP-GDF15, −1.9 ± 0.3 g/mouse, P < 0.001, Fig. 5i). Importantly, mice treated with the scrambled CAP-GDF15 peptide were indistinguishable in body weight or food intake from control mice (P > 0.05 versus vehicle-treated mice, Fig. 5h, i).
(§2) Animal experiments were performed according to a procedure approved by the Stanford University Administrative Panel on Laboratory Animal Care. Mice were maintained in 12-h light-dark cycles at 22 °C and about 50% relative humidity and fed a standard irradiated rodent diet. Where indicated, a high-fat diet (D12492, Research Diets 60% kcal from fat) was used. Male C57BL/6 J (stock number 000664) and male C57BL/6 J DIO mice were purchased from the Jackson Laboratory (stock number 380050). For studies in high-fat diet-fed mice, peptides were dissolved in 18:1:1 (by volume) of saline:Kolliphor EL (Sigma Aldrich):DMSO and administered to mice by intraperitoneal injections at a volume of 10 µl/g at the indicated doses for the indicated times. For lipopolysacchardide injection, LPS (Sigma, #L2880-10MG) was dissolved in saline and administered to mice at a volume of 5 µl/g at indicated dose. For fasting, food was removed from mice for 16 h. For running, a six-lane Columbus Instruments animal treadmill (product 1055-SRM-D65) was used with following 1 h protocol: 10 min at 6 m/min, 50 min at 18 m/min, and increase every 2 min by 2 m/min for the last 10 minutes, all at 12° incline. For all treatment experiments, mice were mock injected with the vehicle for 3–5 days until body weights were stabilized. Heparin plasma was harvested by submandibular bleed. For all experiments, mice were randomly assigned to treatment groups. Experimenters were not blinded to groups.

[2] = tested on: diet-induced obese male mice; experiment: Metabolic chamber studies after a single dose (food intake, RER, movement, VO2, VCO2); assay type: in vivo, mouse; conditions: single dose 50 mg/kg intraperitoneal, diet-induced obese male mice, metabolic chambers
Description: as §1, with “Data are shown as means ± SEM. b–d, N = 12 mice/group; for e, f N = 8 mice/group; for h N = 7 food cages for vehicle and CAP-GDF15 groups and N = 5 for the scrambled peptide group; for i N = 14 mice for the vehicle group, N = 13 for the CAP-GDF15 group, and N = 5 for the scrambled peptide group. b–i injection occurred at time T = 0 (5:00 pm) and data were collected for the following 16 hrs.” left out
as §2
For acute energy expenditure studies, food intake, RER, movement, VO2, and VCO2 were collected with CLAMS Oxymax Metabolic Cages. Mice were placed in individual metabolic cages for 24 hours prior to experiment. Mice were injected with either vehicle, 50 mg/kg CAP-GDF15, 50 mg/kg uncapped CAP-GDF15, or 50 mg/kg scrambled CAP-GDF15 at 5 pm at T = 0. […] All experiments were done with 3–5 month old DIO mice (Jackson, stock 380050), fed high-fat diet ad libitum.
Supplementary Figure 5. Additional measurements from metabolic chambers of mice treated with CAP-GDF15. a CAP-GDF15 plasma concentration after administration of CAP-GDF15 (50 mg/kg, intraperitoneal) or vehicle control. b-c VO2 (b) and VCO2 (c) of 12-16-week diet-induced obese male mice following a single treatment of CAP-GDF15 (50 mg/kg, intraperitoneal) or vehicle control. d-e VO2 (d) and VCO2 (e) of 12-16-week diet-induced obese male mice following a single treatment of scrambled CAP-GDF15 (50 mg/kg, intraperitoneal, scrambled sequence: p[…]-NH2) or vehicle control. f Acute food intake of 12-16-week diet-induced obese male mice following a single treatment of CAP-GDF15 (50 mg/kg, intraperitoneal), uncapped CAP-GDF15 (50 mg/kg, intraperitoneal), or vehicle control. For (a), N=3/group; (b-c), N=12/group; for (d-e), N=8/group; for (f), N=5/group.
For (a-f), injection occurred at time T=0 (5:00pm). Data are shown as means ± SEM. For (b-i), p values were calculated by two-way ANOVA. Source data are provided as a Source Data

[3] = human, in vivo; cited from earlier work
[4] = 50 mg/kg/day IP, diet-induced obese mice, N = 5, P > 0.05 versus vehicle

**Q.** Which results are given for CSCC[C@H](NC(=O)[C@H](CC(C)C)NC(=O)CNC(=O)[C@H](Cc1ccccc1)NC(=O)[C@H](Cc1ccccc1)NC(=O)[C@@H]1CCC(=O)N1)C(N)=O [CAP-TAC1] ([pGlu]FFGLM-NH2)?
**A.** Emax (human TACR3): ~20%; half-life at 10 µM (in vitro; mouse, plasma): 17.1 min; plasma stability t1/2, earlier manuscript version quoted in the rebuttal (in vitro; mouse, plasma): 14.4 min

**Q.** Which results are given for CC(C)C[C@H](NC(=O)CNC(=O)[C@@H]1CCC(=O)N1)C(=O)N[C@@H](CCC(=O)O)C(=O)N[C@@H](C)C(=O)N[C@@H](CC(C)C)C(=O)N[C@@H](CCCNC(=N)N)C(=O)N[C@@H](C)C(=O)N[C@@H](CCCNC(=N)N)C(=O)N[C@@H](CC(C)C)C(=O)N[C@@H](CCCNC(=N)N)C(=O)N[C@H](C(N)=O)C(C)C [Scrambled Peptide] ([pGlu]GLEALRARLRV-NH2)?
**A.** Food Intake ([1]; 24 h, individual animal 1): 2.8 g; Food Intake ([1]; 24 h, individual animal 2): 2.6 g; Food Intake ([1]; 24 h, individual animal 3): 3.6 g; Food Intake ([1]; 24 h, individual animal 4): 3.6 g; Food Intake ([1]; 24 h, individual animal 5): 2.3 g; Food Intake ([1]; 48 h, individual animal 1): 6.2 g; Food Intake ([1]; 48 h, individual animal 2): 4.9 g; Food Intake ([1]; 48 h, individual animal 3): 7.3 g; Food Intake ([1]; 48 h, individual animal 4): 7.3 g; Food Intake ([1]; 48 h, individual animal 5): 4.2 g; Food Intake ([1]; 72 h, individual animal 1): 9.2 g; Food Intake ([1]; 72 h, individual animal 2): 7.4 g; Food Intake ([1]; 72 h, individual animal 3): 10.7 g; Food Intake ([1]; 72 h, individual animal 4): 10.9 g; Food Intake ([1]; 72 h, individual animal 5): 6.9 g

**Q.** With CSCC[C@H](NC(=O)[C@H](CC(C)C)NC(=O)CNC(=O)[C@H](Cc1ccccc1)NC(=O)[C@H](Cc1ccccc1)NC(=O)[C@H](CCC(N)=O)NC(=O)[C@H](CCC(N)=O)NC(=O)[C@@H]1CCCN1C(=O)[C@H](CCCCN)NC(=O)[C@@H]1CCCN1C(=O)[C@@H](N)CCCN=C(N)N)C(N)=O [Substance P] as the compound, how does the “plasma stability t1/2” value (in vitro) read?
**A.** 8.5 min

**Q.** What about the half-life at 10 µM (in vitro; mouse, plasma) of the same compound?
**A.** 4.5 min

**Q.** Which “effect on acute food intake, in words” value [2] does the source give for CC(C)C[C@H](NC(=O)CNC(=O)[C@@H]1CCC(=O)N1)C(=O)N[C@@H](CCC(=O)O)C(=O)N[C@@H](C)C(=O)N[C@@H](CC(C)C)C(=O)N[C@@H](CCCNC(=N)N)C(=O)N[C@@H](C)C(=O)N[C@@H](CCCNC(=N)N)C(=O)N[C@@H](CC(C)C)C(=O)N[C@@H](CCCNC(=N)N)C(=O)N[C@H](C(N)=O)C(C)C [scrambled CAP-GDF15] ([pGlu]GLEALRARLRV-NH2) here?
**A.** completely ineffective

**Q.** What about the “effect on respiratory exchange ratio (RER)” value [2] of the same compound?
**A.** completely ineffective

**Q.** And the “3-day body weight compared with control mice, in words” value [1, 4]?
**A.** indistinguishable

**Q.** What about the “3-day food intake compared with control mice, in words” value [1, 4] of the same compound?
**A.** indistinguishable

**Q.** Which half-life at 10 µM (in vitro; mouse, plasma) does the source give for QFFGLM-NH2 [Substance P (6-11)] here?
**A.** 8.5 min

**Q.** For QLELRLRVAAGR [uncapped CAP-GDF15], which “effect on acute food intake, in words” value [2] is on record?
**A.** significantly less efficacious

**Q.** With liraglutide as the compound, how does the bioavailability [3] read?
**A.** 55%
